In BindingDB's records for doi:10.1021/jm00112a042 (Zambeletti Research Laboratories, 1991):
“And” between values parts separate entries of the source, which are not always exact repeats. Equal values may be shown once.

Experiment: Affinity for opioid receptor delta sites

| Structure (SMILES) | Ki |
| --- | --- |
| O=C(Cc1ccc(Cl)c(Cl)c1)N1CCc2sccc2C1CN1CCCCC1 (stereo unspecified) | > 1 µM |
| O=C(Cc1ccc(Cl)c(Cl)c1)N1CCc2sccc2C1CN1CCCC1 (stereo unspecified) | 0.153 µM |
| O=C(Cc1ccc(Cl)c(Cl)c1)N1CCCC[C@H]1CN1CCCC1 [2-(3,4-Dichloro-phenyl)-1-(2-pyrrolidin-1-ylmethyl-piperidin-1-yl)-ethanone] | 1 µM |
| O=C(Cc1ccc(Cl)c(Cl)c1)N1CCc2ccsc2C1CN1CCCC1 (stereo unspecified) | 0.362 µM |
| O=C(Cc1ccc(C(F)(F)F)cc1)N1CCc2sccc2C1CN1CCCCC1 (stereo unspecified) | > 1 µM |
| O=C(Cc1ccc(Cl)c(Cl)c1)N1CCc2[nH]c3ccccc3c2C1CN1CCCC1 (stereo unspecified) | > 1 µM |

Experiment: Binding affinity was measured on opioid receptor delta sites.

| Structure (SMILES) | Ki |
| --- | --- |
| O=C(Cc1ccc(C(F)(F)F)cc1)N1CCc2ccccc2[C@H]1CN1CCCC1 | > 1 µM and 0.149 µM |
| O=C(Cc1ccc(C(F)(F)F)cc1)N1CCCC[C@H]1CN1CCCC1 [1-(2-Pyrrolidin-1-ylmethyl-piperidin-1-yl)-2-(4-trifluoromethyl-phenyl)-ethanone] | 1 µM |
| CN(C)CC1c2ccccc2CCN1C(=O)Cc1ccc(Cl)c(Cl)c1 (stereo unspecified) | 0.746 µM |
| O=C(Cc1ccc(Cl)c(Cl)c1)N1CCc2c([nH]c3ccccc23)C1CN1CCCC1 (stereo unspecified) | > 1 µM |
| O=C(Cc1ccc(C(F)(F)F)cc1)N1CCc2ccccc2C1CN1CCCCC1 (stereo unspecified) | > 1 µM |
